Data as given in patent US6362369B1, “Phthalic acid diamide derivatives fluorine-containing aniline compounds as starting material, agricultural and horticultural insecticides, and a method for application of the insecticides” (Nihon Nohyaku Co., Ltd., priority 1997, dated 2002).

Columns and labels:
[1] = system: rice leafroller (Cnaphalocrocis medinalis); assay: Insecticidal effect on rice leafroller (Test Example 3); type: in vivo; details: rice leafroller third-instar larvae; rice lamina immersed, 500 ppm; four days after inoculation; 25° C., humidity 70%
How it was run: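 Insecticidal effect is judged by a predefined criterion from dead/alive counts four days after infesting air-dried lamina with third-instar larvae, kept on moistened filter paper at 25° C, 70% humidity.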

[2] = system: diamondback moth (Plutella xylostella); assay: Insecticidal effect on diamondback moth (Test Example 1); type: in vivo; details: diamondback moth; mortality judged by criterion of Test Example 1
How it was run: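 Triplicate groups of 10 insects: eggs laid on Chinese cabbage seedling by adults, seedling immersed then air-dried, kept at 25° C. Day-6 hatch counts gave mortality, rated by criterion.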

| SMILES | Insecticidal effect, Test Example 3 [1] | Insecticidal effect, Test Example 1 [2] |
| --- | --- | --- |
| CCN(CC)C(=O)c1c(C(=O)Nc2ccc(OC(F)(F)C(F)F)cc2C)cccc1[N+](=O)[O-] [compound 1132] | A (100) | A (100) |
| CCN(CC)C(=O)c1c(C(=O)Nc2ccc(C(F)(F)C(F)(F)F)cc2Cl)cccc1[N+](=O)[O-] [compound 1133] | A (100) | A (100) |
| CCN(CC)C(=O)c1c(C(=O)Nc2ccc(C(F)(F)C(F)(F)F)cc2F)cccc1[N+](=O)[O-] [compound 1134] | A (100) | A (100) |
| CCN(CC)C(=O)c1c(C(=O)Nc2ccc(Cl)cc2C)cccc1[N+](=O)[O-] [compound 1135] | A (100) | A (100) |
| CCN(CC)C(=O)c1c(C(=O)Nc2ccc(OC(F)(F)F)cc2)cccc1[N+](=O)[O-] [compound 1136] | A (100) | A (100) |
| CC(C)NC(=O)c1ccccc1C(=O)Nc1ccc2c(c1)OC(F)C(F)(F)O2 (stereo not shown) [compound 1145] | A (100) | A (100) |
| CC(C)(C)NC(=O)c1ccccc1C(=O)Nc1ccc2c(c1)OC(F)C(F)(F)O2 (stereo not shown) [compound 1149] | A (100) | A (100) |
| CCC(C)(C)NC(=O)c1c(F)cccc1C(=O)Nc1ccc(OC(F)F)cc1C [compound 1155] | A (100) | A (100) |
| CCCN(CCC)C(=O)c1c(I)cccc1C(=O)Nc1ccc(OC(F)F)cc1C [compound 1157] | A (100) | A (100) |
| Cc1cc(OC(F)F)ccc1NC(=O)c1cc(I)ccc1C(=O)NC(C)C [compound 1205] | A (100) | A (100) |
| CCc1cc(OC(F)(F)F)ccc1NC(=O)c1ccccc1C(=O)NC(C)C [compound 1208] | A (100) | A (100) |
| Cc1cc(C(F)(F)C(F)(F)F)ccc1NC(=O)c1ccc(Br)c(Br)c1C(=O)NC(C)C [compound 1266] | A (100) | A (100) |
| CCN(CC)C(=O)c1cc(Cl)cc(I)c1C(=O)Nc1ccc(C(F)(F)C(F)(F)F)cc1C [compound 1281] | A (100) | A (100) |
| Cc1cc(OC(F)(F)F)ccc1NC(=O)c1ccc(F)c(F)c1C(=O)NC(C)(C)C [compound 1284] | A (100) | A (100) |
| CCN(CC)C(=O)c1c(C(=O)Nc2ccc(OC(F)(F)F)cc2C)ccc(F)c1F [compound 1285] | A (100) | A (100) |
| Cc1cc(C#CC(C)(C)C)ccc1NC(=O)c1cccc(Cl)c1C(=O)NC(C)C [compound 1301] | A (100) | A (100) |
| CCCNC(=O)c1cccc(I)c1C(=O)Nc1ccc(C(F)(F)C(F)(F)F)cc1C [compound 1304] | A (100) | A (100) |
| CNC(=O)c1cccc(I)c1C(=O)Nc1ccc(C(F)(F)C(F)(F)F)cc1C [compound 1312] | A (100) | A (100) |
| CCC(O)CNC(=O)c1c(Cl)cccc1C(=O)Nc1ccc(C(F)(F)C(F)(F)F)cc1C (stereo not shown) [compound 1318] | A (100) | A (100) |
| Cc1cc(C(F)(F)C(F)(F)F)ccc1NC(=O)c1cccc(Cl)c1C(=O)NC(C)c1ccccc1 (stereo not shown) [compound 1321] | A (100) | A (100) |
| Cc1cc(CCC(C)(C)C)ccc1NC(=O)c1cccc(Cl)c1C(=O)NC(C)C [compound 1323] | A (100) | A (100) |
| Cc1cc(C#Cc2ccccc2)ccc1NC(=O)c1cccc(Cl)c1C(=O)NC(C)C [compound 1325] | A (100) | A (100) |

| SMILES | Insecticidal effect, Test Example 3 [1] | Insecticidal effect, Test Example 1 [2] |
| --- | --- | --- |
| Cc1cc(C(F)(F)C(F)(F)F)ccc1NC(=O)c1cccc(Cl)c1C(=O)NCCCc1ccccc1 [compound 1331] | A (100) | A (100) |
| Cc1cc(C(F)(F)C(F)(F)F)ccc1NC(=O)c1cccc(Cl)c1C(=O)NCc1ccc(Cl)cc1 [compound 1333] | A (100) | A (100) |
| Cc1ccccc1CNC(=O)c1c(Cl)cccc1C(=O)Nc1ccc(C(F)(F)C(F)(F)F)cc1C [compound 1337] | A (100) | A (100) |
| Cc1cccc(CNC(=O)c2c(Cl)cccc2C(=O)Nc2ccc(C(F)(F)C(F)(F)F)cc2C)c1 [compound 1339] | A (100) | A (100) |
| Cc1cccc(CNC(=O)c2cccc(Cl)c2C(=O)Nc2ccc(C(F)(F)C(F)(F)F)cc2C)c1 [compound 1340] | A (100) | A (100) |
| COc1ccccc1CNC(=O)c1c(Cl)cccc1C(=O)Nc1ccc(C(F)(F)C(F)(F)F)cc1C [compound 1343] | A (100) | A (100) |
| Cc1cc(C(F)(F)C(F)(F)F)ccc1NC(=O)c1cccc(Cl)c1C(=O)NCc1ccc(Cl)c(Cl)c1 [compound 1351] | A (100) | A (100) |
| Cc1cc(C(F)(F)C(F)(F)F)ccc1NC(=O)c1c(Cl)cccc1C(=O)NCc1ccc(Cl)c(Cl)c1 [compound 1352] | A (100) | A (100) |
| Cc1cc(C(F)(F)C(F)(F)F)ccc1NC(=O)c1cccc(Cl)c1C(=O)NCCc1cccc(Cl)c1 [compound 1358] | C (89-80) | A (100) |
| Cc1cc(C(F)(F)C(F)(F)F)ccc1NC(=O)c1cccc(Cl)c1C(=O)NCCc1ccc(Cl)cc1 [compound 1360] | C (89-80) | A (100) |
| Cc1cc(C(F)(F)C(F)(F)F)ccc1NC(=O)c1cccc(Cl)c1C(=O)NCCOc1cccc(Cl)c1 [compound 1370] | A (100) | A (100) |
| Cc1cc(C(F)(F)C(F)(F)F)ccc1NC(=O)c1ccccc1C(=O)NC(C)(C)CO [compound 1381] | C (89-80) | A (100) |
| Cc1cc(C(F)(F)C(F)(F)F)ccc1NC(=O)c1cccc(Cl)c1C(=O)Nc1ccco1 [compound 1390] | A (100) | A (100) |
| Cc1cc(C(F)(F)C(F)(F)F)ccc1NC(=O)c1cccc(Cl)c1C(=O)NC1CCCO1 (stereo not shown) [compound 1392] | A (100) | A (100) |
| Cc1cc(C(F)(F)C(F)(F)F)ccc1NC(=O)c1c(Cl)cccc1C(=O)NC1CCCO1 (stereo not shown) [compound 1393] | A (100) | A (100) |
| Cc1cc(C(F)(F)C(F)(F)F)ccc1NC(=O)c1cccc(Cl)c1C(=O)NCc1ccncc1 [compound 1394] | A (100) | A (100) |
| CC(C)NC(=O)c1c(I)cccc1C(=O)Nc1ccc(Br)cc1C(F)(F)C(F)(F)F [compound 1409] | A (100) | A (100) |
| CC(C)NC(=O)c1c(I)cccc1C(=O)Nc1ccc(C(F)(F)C(F)(F)F)cc1C(F)(F)C(F)(F)F [compound 1410] | A (100) | A (100) |
| C#CCNC(=O)c1ccccc1C(=O)Nc1ccc(C(F)(F)C(F)(F)F)cc1C [compound 1411] | A (100) | A (100) |
| Cc1cc(C(F)(F)C(F)(F)F)ccc1NC(=O)c1c(Cl)cccc1C(=O)NC(C)(C)CO [compound 1415] | A (100) | A (100) |
| Cc1cc(C(F)(F)C(F)(F)F)ccc1NC(=O)c1cccc(Cl)c1C(=O)NCc1cccnc1 [compound 1419] | A (100) | A (100) |
| Cc1cc(C(F)(F)C(F)(F)F)ccc1NC(=O)c1c(Cl)cccc1C(=O)NCc1cccnc1 [compound 1420] | A (100) | A (100) |
